This is an account of results in patent publication US8471005B2 (Cephalon, Inc., priority 2008, dated 2013).

Assay [1] deals with T1, ALK (Homo sapiens, UniProt Q9UM73).
T1 construct: host or cells: baculovirus expression system
Description: ALK Kinase Assay (ELISA/TRF, PLC-γ substrate). Type of assay: biochemical. Particulars: ALK Kinase Inhibition; read-out: ALK Potency. Put shortly:
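PLC-γ substrate coated at 10 μg/mL in TBS; reaction started with 30 ng/ml ALK, run 15 min at 37° C. Phosphoproduct detected by TRF with Eu-N1-labeled PT66 anti-phosphotyrosine antibody. IC50 from sigmoidal variable-slope fit of percent inhibition versus log concentration.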
A general note: In an ELISA, binding on a coated surface is turned into a signal by an enzyme label.

Assay [2] addresses T2, JAK2 (Homo sapiens, UniProt O60674).
T2 construct: host or cells: baculovirus expression system
Description: Recombinant Human JAK2 Kinase Assay (TRF). It is filed as biochemical. Particulars: JAK2 Kinase Inhibition; read-out: JAK2 Potency. Put shortly:
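TRF read-out: Eu-N1 PY100 anti-phosphotyrosine antibody detects product. Enzyme is baculovirus-expressed JAK2 at 15 ng/ml; substrate is a biotinyl 15-mer peptide bound to Neutravidin-coated wells. Buffer 20 mM HEPES pH 7.2, 0.2 μM ATP, 1 mM MnCl2, 0.1% BSA, 2.5% DMSO final; 20 min, RT.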

Where only a bound is given, the exact number is not on record here.

T2 sequence (O60674 whole entry): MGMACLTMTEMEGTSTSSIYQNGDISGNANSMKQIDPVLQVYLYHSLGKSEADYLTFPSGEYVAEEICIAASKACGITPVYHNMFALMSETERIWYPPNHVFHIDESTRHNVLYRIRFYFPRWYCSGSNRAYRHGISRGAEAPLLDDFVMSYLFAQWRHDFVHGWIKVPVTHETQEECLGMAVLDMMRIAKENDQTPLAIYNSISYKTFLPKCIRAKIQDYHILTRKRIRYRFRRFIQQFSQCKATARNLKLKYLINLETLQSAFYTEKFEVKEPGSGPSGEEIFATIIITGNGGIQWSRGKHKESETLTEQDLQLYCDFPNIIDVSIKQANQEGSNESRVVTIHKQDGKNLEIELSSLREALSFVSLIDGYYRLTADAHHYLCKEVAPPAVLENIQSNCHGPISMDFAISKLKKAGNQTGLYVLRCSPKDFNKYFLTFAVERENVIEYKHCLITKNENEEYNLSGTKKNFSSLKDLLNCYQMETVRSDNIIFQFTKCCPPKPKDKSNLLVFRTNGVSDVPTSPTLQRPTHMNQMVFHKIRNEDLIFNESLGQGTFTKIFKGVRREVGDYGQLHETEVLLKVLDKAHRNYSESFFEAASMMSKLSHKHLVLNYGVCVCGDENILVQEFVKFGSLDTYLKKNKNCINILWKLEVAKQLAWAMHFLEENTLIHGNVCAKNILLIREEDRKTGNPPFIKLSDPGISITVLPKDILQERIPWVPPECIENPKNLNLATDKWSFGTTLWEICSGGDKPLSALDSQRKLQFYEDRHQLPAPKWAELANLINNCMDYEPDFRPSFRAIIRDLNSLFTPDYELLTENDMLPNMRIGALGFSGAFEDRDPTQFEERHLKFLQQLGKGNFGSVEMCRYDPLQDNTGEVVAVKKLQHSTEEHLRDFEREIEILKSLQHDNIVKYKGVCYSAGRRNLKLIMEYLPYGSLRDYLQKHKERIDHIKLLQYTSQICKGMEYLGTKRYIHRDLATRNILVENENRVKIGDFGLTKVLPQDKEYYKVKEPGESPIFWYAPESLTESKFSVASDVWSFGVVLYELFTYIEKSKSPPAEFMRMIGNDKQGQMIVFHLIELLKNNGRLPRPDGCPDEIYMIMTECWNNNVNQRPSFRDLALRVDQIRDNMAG
T1 sequence (Q9UM73 19-1620): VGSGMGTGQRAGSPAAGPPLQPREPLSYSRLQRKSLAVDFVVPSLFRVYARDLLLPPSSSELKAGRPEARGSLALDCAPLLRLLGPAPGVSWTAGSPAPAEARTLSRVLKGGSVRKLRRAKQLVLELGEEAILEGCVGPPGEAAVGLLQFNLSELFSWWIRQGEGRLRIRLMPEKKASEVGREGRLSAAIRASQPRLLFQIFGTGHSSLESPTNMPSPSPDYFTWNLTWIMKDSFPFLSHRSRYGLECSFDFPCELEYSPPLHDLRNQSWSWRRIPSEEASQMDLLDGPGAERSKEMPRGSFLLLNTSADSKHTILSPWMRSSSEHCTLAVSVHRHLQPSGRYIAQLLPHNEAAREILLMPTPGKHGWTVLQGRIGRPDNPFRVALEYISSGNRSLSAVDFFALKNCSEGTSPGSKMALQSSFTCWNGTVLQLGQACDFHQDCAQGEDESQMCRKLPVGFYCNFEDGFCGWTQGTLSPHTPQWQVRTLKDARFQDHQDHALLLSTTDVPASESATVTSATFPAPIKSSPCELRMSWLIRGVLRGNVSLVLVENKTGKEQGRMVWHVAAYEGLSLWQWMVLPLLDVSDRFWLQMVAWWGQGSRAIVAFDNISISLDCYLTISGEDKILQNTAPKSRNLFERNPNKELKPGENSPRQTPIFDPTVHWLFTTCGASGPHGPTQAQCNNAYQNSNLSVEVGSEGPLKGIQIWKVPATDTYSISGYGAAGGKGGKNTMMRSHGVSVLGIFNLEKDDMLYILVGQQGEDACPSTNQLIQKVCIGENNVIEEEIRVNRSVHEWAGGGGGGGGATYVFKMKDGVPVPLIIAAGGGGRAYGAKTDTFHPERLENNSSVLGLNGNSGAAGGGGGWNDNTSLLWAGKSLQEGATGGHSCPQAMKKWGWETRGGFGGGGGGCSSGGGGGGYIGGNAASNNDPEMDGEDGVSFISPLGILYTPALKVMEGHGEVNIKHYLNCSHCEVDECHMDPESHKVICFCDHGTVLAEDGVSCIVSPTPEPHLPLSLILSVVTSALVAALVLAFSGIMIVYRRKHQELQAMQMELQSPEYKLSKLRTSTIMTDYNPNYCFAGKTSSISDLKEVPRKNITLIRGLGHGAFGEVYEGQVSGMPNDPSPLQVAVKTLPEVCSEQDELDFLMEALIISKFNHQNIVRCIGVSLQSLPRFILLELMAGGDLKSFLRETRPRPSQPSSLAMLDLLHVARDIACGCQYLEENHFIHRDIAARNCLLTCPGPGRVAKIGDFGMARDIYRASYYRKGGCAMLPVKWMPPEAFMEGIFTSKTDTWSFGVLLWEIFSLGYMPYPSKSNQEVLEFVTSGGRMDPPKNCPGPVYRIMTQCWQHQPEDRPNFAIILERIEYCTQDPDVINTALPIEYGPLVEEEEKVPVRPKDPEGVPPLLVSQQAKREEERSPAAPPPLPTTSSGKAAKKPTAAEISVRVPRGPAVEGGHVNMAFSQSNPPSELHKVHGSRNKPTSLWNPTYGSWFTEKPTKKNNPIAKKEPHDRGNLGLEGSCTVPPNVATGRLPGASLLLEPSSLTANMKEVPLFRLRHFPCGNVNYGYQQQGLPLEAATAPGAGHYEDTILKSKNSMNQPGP

Turning to `CC1(C)CCC(=O)Nc2cc(Nc3ncc4ccc(-c5ccc(S(C)(=O)=O)cc5)n4n3)ccc21` [Example 92, 8-[7-(4-Methanesulfonyl-phenyl)-pyrrolo[2,1-f][1,2,4]triazin-2-ylamino]-5,5-dimethyl-1,3,4,5-tetrahydro-benzo[b]azepin-2-one], the IC50 was 1000 to 10000 nM in assay [1] and < 100 nM in assay [2].

As for `COc1ccccc1-c1ccc2cnc(Nc3ccc(OCCN4CCN(C)CC4)cc3)nn12` [Example 94, [7-(2-Methoxy-phenyl)-pyrrolo[2,1-f][1,2,4]triazin-2-yl]-{4-[2-(4-methyl-piperazin-1-yl)-ethoxy]-phenyl}-amine], the IC50 in assay [1] and in assay [2] was < 100 nM throughout.

In the case of `CS(=O)(=O)c1cccc(-c2ccc3cnc(Nc4ccc(N5CCN(CCO)CC5)cc4)nn23)c1` [Example 95, 2-(4-{4-[7-(3-Methanesulfonyl-phenyl)-pyrrolo[2,1-f][1,2,4]triazin-2-ylamino]-phenyl}-piperazin-1-yl)-ethanol], the IC50 in assay [1] is 100 to 1000 nM; in assay [2], < 100 nM.

On to `CS(=O)(=O)c1cccc(-c2ccc3cnc(Nc4ccc(N5CCC(CO)CC5)cc4)nn23)c1` [Example 96, (1-{4-[7-(3-Methanesulfonyl-phenyl)-pyrrolo[2,1-f][1,2,4]triazin-2-ylamino]-phenyl}-piperidin-4-yl)-methanol], for which the results for the IC50 in assay [1] and in assay [2] were 100 to 1000 nM and < 100 nM, respectively.

`c1ccc(Sc2ccc3cnc(Nc4ccc(N5CCOCC5)cc4)nn23)cc1` [Example 97, (4-Morpholin-4-yl-phenyl)-(7-phenylsulfanyl-pyrrolo[2,1-f][1,2,4]triazin-2-yl)-amine]: the IC50 in assay [1] is 100 to 1000 nM; in assay [2], < 100 nM.

On to `COc1ccccc1Sc1ccc2cnc(Nc3ccc(N4CCN(C)CC4)cc3)nn12` [Example 98, [7-(2-Methoxy-phenylsulfanyl)-pyrrolo[2,1-f][1,2,4]triazin-2-yl]-[4-(4-methyl-piperazin-1-yl)-phenyl]-amine], for which the IC50 in assay [1] is 100 to 1000 nM; in assay [2], < 100 nM.

As to `CN1CCN(c2ccc(Nc3ncc4c(Br)cc(-c5ccccc5)n4n3)cc2)CC1` [Example 100, (5-Bromo-7-phenyl-pyrrolo[2,1-f][1,2,4]triazin-2-yl)-[4-(4-methyl-piperazin-1-yl)-phenyl]-amine], the figures for the IC50 in assay [1] and in assay [2] were 100 to 1000 nM and < 100 nM, respectively.

Take `COc1ccccc1-c1cc(Br)c2cnc(Nc3ccc(N4CCN(C)CC4)cc3)nn12` [Example 101, [5-Bromo-7-(2-methoxy-phenyl)-pyrrolo[2,1-f][1,2,4]triazin-2-yl]-[4-(4-methyl-piperazin-1-yl)-phenyl]-amine]: the IC50 in assay [1] and in assay [2] was < 100 nM throughout.

Regarding `COc1ccccc1-c1cc(Br)n2nc(Nc3ccc(N4CCN(C)CC4)cc3)ncc12` [Example 102, [7-Bromo-5-(2-methoxy-phenyl)-pyrrolo[2,1-f][1,2,4]triazin-2-yl]-[4-(4-methyl-piperazin-1-yl)-phenyl]-amine], the IC50 was > 10000 nM in assay [1] and 1000 to 10000 nM in assay [2].

With `C=Cc1cc(-c2ccccc2OC)n2nc(Nc3ccc(N4CCN(C)CC4)cc3)ncc12` [Example 103, [7-(2-Methoxy-phenyl)-5-vinyl-pyrrolo[2,1-f][1,2,4]triazin-2-yl]-[4-(4-methyl-piperazin-1-yl)-phenyl]-amine], the IC50 in assay [1] is 100 to 1000 nM; in assay [2], < 100 nM.

For `C=Cc1cc(-c2ccc(S(C)(=O)=O)cc2)n2nc(Nc3ccc(N4CCN(C)CC4)cc3)ncc12` [Example 104, [7-(4-Methanesulfonyl-phenyl)-5-vinyl-pyrrolo[2,1-f][1,2,4]triazin-2-yl]-[4-(4-methyl-piperazin-1-yl)-phenyl]-amine], the results for the IC50 in assay [1] and in assay [2] were 1000 to 10000 nM and < 100 nM, respectively.

`COc1ccccc1-c1cc(C)c2cnc(Nc3ccc(N4CCN(C)CC4)cc3)nn12` [Example 105, [7-(2-Methoxy-phenyl)-5-methyl-pyrrolo[2,1-f][1,2,4]triazin-2-yl]-[4-(4-methyl-piperazin-1-yl)-phenyl]-amine]: the IC50 in assay [1] and in assay [2] was < 100 nM in each case.

As for `CCc1cc(-c2ccccc2OC)n2nc(Nc3ccc(N4CCN(C)CC4)cc3)ncc12` [Example 106, [5-Ethyl-7-(2-methoxy-phenyl)-pyrrolo[2,1-f][1,2,4]triazin-2-yl]-[4-(4-methyl-piperazin-1-yl)-phenyl]-amine], the figures for the IC50 in assay [1] and in assay [2] were 100 to 1000 nM and < 100 nM, respectively.

In the case of `Cc1cc(-c2ccc(S(C)(=O)=O)cc2)n2nc(Nc3ccc(N4CCOCC4)cc3)ncc12` [Example 107, [7-(4-Methanesulfonyl-phenyl)-5-methyl-pyrrolo[2,1-f][1,2,4]triazin-2-yl]-(4-morpholin-4-yl-phenyl)-amine], the values for the IC50 in assay [1] and in assay [2] were 100 to 1000 nM and < 100 nM, respectively.

On to `Cc1cc(-c2ccc(S(C)(=O)=O)cc2)n2nc(Nc3ccc(N4CCN(C)CC4)cc3)ncc12` [Example 108, [7-(4-Methanesulfonyl-phenyl)-5-methyl-pyrrolo[2,1-f][1,2,4]triazin-2-yl]-[4-(4-methyl-piperazin-1-yl)-phenyl]-amine], for which the IC50 in assay [1] is 100 to 1000 nM; in assay [2], < 100 nM.

In the case of `CCOc1ccccc1-c1ccc2cnc(Nc3ccc(N4CCN(C)CC4)cc3)nn12` [Example 109, [7-(2-Ethoxy-phenyl)-pyrrolo[2,1-f][1,2,4]triazin-2-yl]-[4-(4-methyl-piperazin-1-yl)-phenyl]-amine], the IC50 in assay [1] and in assay [2] was < 100 nM throughout.

On to `COc1ccccc1-c1c(Br)c(Br)c2cnc(Nc3ccc(N4CCOCC4)cc3)nn12` [Example 110, [5,6-Dibromo-7-(2-methoxy-phenyl)-pyrrolo[2,1-f][1,2,4]triazin-2-yl]-(4-morpholin-4-yl-phenyl)-amine], for which the results for the IC50 in assay [1] and in assay [2] were > 10000 nM and < 100 nM, respectively.

In the case of `O=S(=O)(c1ccccc1)c1ccc2cnc(Nc3ccc(N4CCOCC4)cc3)nn12` [Example 111, (7-Benzenesulfonyl-pyrrolo[2,1-f][1,2,4]triazin-2-yl)-(4-morpholin-4-yl-phenyl)-amine], the figures for the IC50 in assay [1] and in assay [2] were 100 to 1000 nM and < 100 nM, respectively.

For `COc1ccccc1-c1c(C)c(C)c2cnc(Nc3ccc(N4CCOCC4)cc3)nn12` [Example 112, [7-(2-Methoxy-phenyl)-5,6-dimethyl-pyrrolo[2,1-f][1,2,4]triazin-2-yl]-(4-morpholin-4-yl-phenyl)-amine], the IC50 is 100 to 1000 nM in assay [1] and < 100 nM in assay [2].

`COCC(C)Oc1ncc2ccc(-c3ccc(S(C)(=O)=O)cc3)n2n1` (stereo not shown) [Example 113, 7-(4-Methanesulfonyl-phenyl)-2-(2-methoxy-1-methyl-ethoxy)-pyrrolo[2,1-f][1,2,4]triazine]: the IC50 in assay [1] was > 10000 nM; in assay [2] it was 1000 to 10000 nM.

Turning to `COc1ccccc1-c1cc(C#N)c2cnc(Nc3ccc(N4CCN(C)CC4)cc3)nn12` [Example 114, 7-(2-Methoxy-phenyl)-2-[4-(4-methyl-piperazin-1-yl)-phenylamino]-pyrrolo[2,1-f][1,2,4]triazine-5-carbonitrile], the IC50 in assay [1] is 100 to 1000 nM; in assay [2], < 100 nM.

`OCCN1CCN(c2ccc(Nc3ncc4ccc(-c5cccnc5)n4n3)cc2)CC1` [Example 115, 2-{4-[4-(7-Pyridin-3-yl-pyrrolo[2,1-f][1,2,4]triazin-2-ylamino)-phenyl]-piperazin-1-yl}-ethanol]: the results for the IC50 in assay [1] and in assay [2] were 100 to 1000 nM and < 100 nM, respectively.

For `OCC1CCN(c2ccc(Nc3ncc4ccc(-c5cccnc5)n4n3)cc2)CC1` [Example 116, {1-[4-(7-Pyridin-3-yl-pyrrolo[2,1-f][1,2,4]triazin-2-ylamino)-phenyl]-piperidin-4-yl}-methanol], the IC50 in assay [1] is 1000 to 10000 nM; in assay [2], < 100 nM.

For `CS(=O)(=O)CCNC(=O)c1ccc(-c2ccc3cnc(Nc4ccc(N5CCOCC5)cc4)nn23)cc1` [Example 117, N-(2-Methanesulfonyl-ethyl)-4-[2-(4-morpholin-4-yl-phenylamino)-pyrrolo[2,1-f][1,2,4]triazin-7-yl]-benzamide], the IC50 was 1000 to 10000 nM in assay [1] and < 100 nM in assay [2].

Take `CC(C)(C)NS(=O)(=O)c1cccc(-c2ccc3cnc(Nc4ccc(OCCN5CCCC5)cc4)nn23)c1` [Example 118, N-tert-Butyl-3-{2-[4-(2-pyrrolidin-1-yl-ethoxy)-phenylamino]-pyrrolo[2,1-f][1,2,4]triazin-7-yl}-benzenesulfonamide]: the figures for the IC50 in assay [1] and in assay [2] were 100 to 1000 nM and < 100 nM, respectively.

Take `CN1CCN(CCOc2ccc(Nc3ncc4ccc(-c5cccnc5)n4n3)cc2)CC1` [Example 119, {4-[2-(4-Methyl-piperazin-1-yl)-ethoxy]-phenyl}-(7-pyridin-3-yl-pyrrolo[2,1-f][1,2,4]triazin-2-yl)-amine]: the IC50 in assay [1] was 100 to 1000 nM; in assay [2] it was < 100 nM.

Consider `CN1CCN(CCCOc2ccc(Nc3ncc4ccc(-c5cccnc5)n4n3)cc2)CC1` [Example 120, {4-[3-(4-Methyl-piperazin-1-yl)-propoxy]-phenyl}-(7-pyridin-3-yl-pyrrolo[2,1-f][1,2,4]triazin-2-yl)-amine], for which the figures for the IC50 in assay [1] and in assay [2] were 100 to 1000 nM and < 100 nM, respectively.

As for `COc1ccccc1-c1ccc2cnc(Nc3ccc(OCCN4CCCC4)cc3)nn12` [Example 121, [7-(2-Methoxy-phenyl)-pyrrolo[2,1-f][1,2,4]triazin-2-yl]-[4-(2-pyrrolidin-1-yl-ethoxy)-phenyl]-amine], the IC50 in assay [1] and in assay [2] was < 100 nM throughout.

For the compound `COc1ccccc1-c1ccc2cnc(Nc3cc[nH]n3)nn12` [Example 122, [7-(2-Methoxy-phenyl)-pyrrolo[2,1-f][1,2,4]triazin-2-yl]-(1H-pyrazol-3-yl)-amine], the IC50 in assay [1] was 100 to 1000 nM; in assay [2] it was < 100 nM.
